Assays:
[1] = Compound cytotoxicity, XTT-based colorimetric assay; assay type: cell-based; settings: human; uninfected MT2 cells, day 4, XTT
Procedure, shortened: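 Run under the antiviral-assay protocol but without virus. Viability was read on day 4 and CC50 values were derived from the readout.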

[2] = tested on: recombinant NL4-3 virus (Renilla luciferase) in MT-2 cells; test: HIV cell culture assay (antiviral activity, luciferase readout); assay type: cell-based; settings: Renilla, NL43
Procedure, shortened: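 Antiviral EC50 was derived via the median effect equation from luciferase signal. The signal came from MT-2 cultures infected for 4–5 days with a nef-deleted, Renilla luciferase-expressing NL4-3 reporter virus (made in 293T cells) in the presence of compound dilutions.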

Question: Which results are given for `CS(=O)(=O)Nc1nn(CC(F)F)c2c(-n3c([C@H](Cc4cc(F)cc(F)c4)NC(=O)Cn4nc(C(F)F)c5c4C(F)(F)[C@@H]4C[C@H]54)nc4cc(-c5cccc(C(F)(F)F)n5)ccc4c3=O)ccc(Cl)c12` [Example 138, N-[(1S)-1-{3-[4-chloro-1-(2,2-difluoroethyl)-3-methanesulfonamido-1H-indazol-7-yl]-4-oxo-7-(trifluoromethyppyridin-2-yl]-3,4-dihydroquinazolin-2-yl}-2-(3,5-difluorophenyl)ethyl]-2-[(2S,4R)-9-(difluoromethyl)-5,5-difluoro-7,8-diazatricyclo[4.3.0.0^2,^4]nona-1(6),8-dien-7-yl]acetamide]?
Answer: CC50 at 4 days [1]: > 500 nM; EC50 [2]: 0.079 nM

Question: What does the source list for `Cc1cc(C(C)C)nc(-c2ccc3c(=O)n(-c4ccc(Cl)c5c(NS(C)(=O)=O)nn(C)c45)c([C@H](Cc4cc(F)cc(F)c4)NC(=O)Cn4nc(C(F)F)c5c4C(F)(F)[C@@H]4C[C@H]54)nc3c2)n1` (atropisomer, axis not shown; (P)) [Example 37, N—((S)-1-((3P)-3-(4-chloro-1-methyl-3-(methylsulfonamido)-1H-indazol-7-yl)-7-(4-isopropyl-6-methylpyrimidin-2-yl)-4-oxo-3,4-dihydroquinazolin-2-yl)-2-(3,5-difluorophenyl)ethyl)-2-((3bS,4aR)-3-(difluoromethyl)-5,5-difluoro-3b,4,4a,5-tetrahydro-1H-cyclopropa[3,4]cyclopenta[1,2-c]pyrazol-1-yl)acetamide]?
Answer: CC50 at 4 days [1]: > 500 nM; EC50 [2]: 0.16 nM

Question: What does the source list for `Cc1ccc(-c2ccc3c(=O)n(-c4ccc(Cl)c5c(NS(=O)(=O)C6CC6)nn(CC(F)F)c45)c([C@H](Cc4cc(F)cc(F)c4)NC(=O)Cn4nc(C(F)F)c5c4C(F)(F)[C@@H]4C[C@H]54)nc3c2)nn1` (atropisomer, axis not shown; (P)) [Example 88, N—((S)-1-((3P)-3-(4-chloro-3-(cyclopropanesulfonamido)-1-(2,2-difluoroethyl)-1H-indazol-7-yl)-7-(6-methylpyridazin-3-yl)-4-oxo-3,4-dihydroquinazolin-2-yl)-2-(3,5-difluorophenyl)ethyl)-2-((3bS,4aR)-3-(difluoromethyl)-5,5-difluoro-3b,4,4a,5-tetrahydro-1H-cyclopropa[3,4]cyclopenta[1,2-c]pyrazol-1-yl)acetamide]?
Answer: CC50 at 4 days [1]: > 500 nM; EC50 [2]: 0.058 nM

Question: For `Cn1nc(NS(C)(=O)=O)c2c(Cl)ccc(-n3c([C@H](Cc4cc(F)cc(F)c4)NC(=O)Cn4nc(C(F)F)c5c4C(F)(F)[C@@H]4C[C@H]54)nc4cc(-c5ncccc5F)ccc4c3=O)c21` (atropisomer, axis not shown; (P)) [Example 21, N—((S)-1-((3P)-3-(4-chloro-1-methyl-3-(methylsulfonamido)-1H-indazol-7-yl)-7-(3-fluoropyridin-2-yl)-4-oxo-3,4-dihydroquinazolin-2-yl)-2-(3,5-difluorophenyl)ethyl)-2-((3bS,4aR)-3-(difluoromethyl)-5,5-difluoro-3b,4,4a,5-tetrahydro-1H-cyclopropa[3,4]cyclopenta[1,2-c]pyrazol-1-yl)acetamide], which CC50 at 4 days [1] is on record?
Answer: > 500 nM

Question: And the EC50 [2]?
Answer: 0.091 nM

Question: With `CC(C)c1nccc(-c2ccc3c(=O)n(-c4ccc(Cl)c5c(NS(C)(=O)=O)nn(C)c45)c([C@H](Cc4cc(F)cc(F)c4)NC(=O)Cn4nc(C(F)F)c5c4C(F)(F)[C@@H]4C[C@H]54)nc3c2)n1` (atropisomer, axis not shown; (P)) [Example 67, N—((S)-1-((3P)-3-(4-chloro-1-methyl-3-(methylsulfonamido)-1H-indazol-7-yl)-7-(2-isopropylpyrimidin-4-yl)-4-oxo-3,4-dihydroquinazolin-2-yl)-2-(3,5-difluorophenyl)ethyl)-2-((3bS,4aR)-3-(difluoromethyl)-5,5-difluoro-3b,4,4a,5-tetrahydro-1H-cyclopropa[3,4]cyclopenta[1,2-c]pyrazol-1-yl)acetamide] as the compound, how does the CC50 at 4 days [1] read?
Answer: > 500 nM

Question: What about the EC50 [2] of the same compound?
Answer: 0.15 nM

Question: With `Cn1nc(NS(C)(=O)=O)c2c(Cl)ccc(-n3c([C@H](Cc4cc(F)cc(F)c4)NC(=O)Cn4nc(C(F)F)c5c4C(F)(F)[C@@H]4C[C@H]54)nc4cc(-c5cc(S(C)(=O)=O)ccn5)ccc4c3=O)c21` (atropisomer, axis not shown; (P)) [Example 4, N—((S)-1-((3P)-3-(4-chloro-1-methyl-3-(methylsulfonamido)-1H-indazol-7-yl)-7-(4-(methylsulfonyl)pyridin-2-yl)-4-oxo-3,4-dihydroquinazolin-2-yl)-2-(3,5-difluorophenyl)ethyl)-2-((3bS,4aR)-3-(difluoromethyl)-5,5-difluoro-3b,4,4a,5-tetrahydro-1H-cyclopropa[3,4]cyclopenta[1,2-c]pyrazol-1-yl)acetamide] as the compound, how does the CC50 at 4 days [1] read?
Answer: > 500 nM

Question: What about the EC50 [2] of the same compound?
Answer: 0.053 nM

Question: With `COc1ccc(-c2ccc3c(=O)n(-c4ccc(Cl)c5c(NS(C)(=O)=O)nn(C)c45)c([C@H](Cc4cc(F)cc(F)c4)NC(=O)Cn4nc(C(F)F)c5c4C(F)(F)[C@@H]4C[C@H]54)nc3c2)c(C)n1` (atropisomer, axis not shown; (P)) [Example 5, N—((S)-1-((3P)-3-(4-chloro-1-methyl-3-(methylsulfonamido)-1H-indazol-7-yl)-7-(6-methoxy-2-methylpyridin-3-yl)-4-oxo-3,4-dihydroquinazolin-2-yl)-2-(3,5-difluorophenyl)ethyl)-2-((3bS,4aR)-3-(difluoromethyl)-5,5-difluoro-3b,4,4a,5-tetrahydro-1H-cyclopropa[3,4]cyclopenta[1,2-c]pyrazol-1-yl)acetamide] as the compound, how does the CC50 at 4 days [1] read?
Answer: > 500 nM

Question: What about the EC50 [2] of the same compound?
Answer: 0.94 nM

Question: Which CC50 at 4 days [1] does the source give for `Cc1ccc(F)c(-c2ccc3c(=O)n(-c4ccc(Cl)c5c(NS(C)(=O)=O)nn(CC(F)(F)F)c45)c([C@H](Cc4cc(F)cc(F)c4)NC(=O)Cn4nc(C(F)F)c5c4C(F)(F)[C@@H]4C[C@H]54)nc3c2)n1` (atropisomer, axis not shown) [Example 113] here?
Answer: > 500 nM

Question: And the EC50 [2]?
Answer: 0.1 nM

Question: Which CC50 at 4 days [1] does the source give for `Cn1nc(NS(C)(=O)=O)c2c(Cl)ccc(-n3c([C@H](Cc4cc(F)cc(F)c4)NC(=O)Cn4nc(C(F)F)c5c4C(F)(F)[C@@H]4C[C@H]54)nc4cc(-c5ccnc(C6CCCC6)n5)ccc4c3=O)c21` (atropisomer, axis not shown; (P)) [Example 73, N—((S)-1-((3P)-3-(4-chloro-1-methyl-3-(methylsulfonamido)-1H-indazol-7-yl)-7-(2-cyclopentylpyrimidin-4-yl)-4-oxo-3,4-dihydroquinazolin-2-yl)-2-(3,5-difluorophenyl)ethyl)-2-((3bS,4aR)-3-(difluoromethyl)-5,5-difluoro-3b,4,4a,5-tetrahydro-1H-cyclopropa[3,4]cyclopenta[1,2-c]pyrazol-1-yl)acetamide] here?
Answer: > 500 nM

Question: And the EC50 [2]?
Answer: 0.96 nM

Question: For `Cc1cc(C(F)(F)F)nc(-c2ccc3c(=O)n(-c4ccc(Cl)c5c(NS(C)(=O)=O)nn(C)c45)c([C@H](Cc4cc(F)cc(F)c4)NC(=O)Cn4nc(C(F)F)c5c4C(F)(F)[C@@H]4C[C@H]54)nc3c2)n1` [Example 53, N—((S)-1-((3P)-3-(4-chloro-1-methyl-3-(methylsulfonamido)-1H-indazol-7-yl)-7-(4-methyl-6-(trifluoromethyl)pyrimidin-2-yl)-4-oxo-3,4-dihydroquinazolin-2-yl)-2-(3,5-difluorophenyl)ethyl)-2-((3bS,4aR)-3-(difluoromethyl)-5,5-difluoro-3b,4,4a,5-tetrahydro-1H-cyclopropa[3,4]cyclopenta[1,2-c]pyrazol-1-yl)acetamide], which CC50 at 4 days [1] is on record?
Answer: > 500 nM

Question: What about the EC50 [2] of the same compound?
Answer: 0.16 nM

Question: With `Cc1ccnc(-c2ccc3c(=O)n(-c4ccc(Cl)c5c(NS(C)(=O)=O)nn(C)c45)c([C@H](Cc4cc(F)cc(F)c4)NC(=O)Cn4nc(C(F)F)c5c4C(F)(F)[C@@H]4C[C@H]54)nc3c2)c1` (atropisomer, axis not shown; (P)) [Example 2, N—((S)-1-((3P)-3-(4-chloro-1-methyl-3-(methylsulfonamido)-1H-indazol-7-yl)-7-(4-methylpyridin-2-yl)-4-oxo-3,4-dihydroquinazolin-2-yl)-2-(3,5-difluorophenyl)ethyl)-2-((3bS,4aR)-3-(difluoromethyl)-5,5-difluoro-3b,4,4a,5-tetrahydro-1H-cyclopropa[3,4]cyclopenta[1,2-c]pyrazol-1-yl)acetamide] as the compound, how does the CC50 at 4 days [1] read?
Answer: > 500 nM

Question: What about the EC50 [2] of the same compound?
Answer: 0.059 nM

Question: With `Cn1nc(NS(C)(=O)=O)c2c(Cl)ccc(-n3c([C@H](Cc4cc(F)cc(F)c4)NC(=O)Cn4nc(C(F)F)c5c4C(F)(F)[C@@H]4C[C@H]54)nc4cc(-c5cc(C(F)(F)F)ccn5)ccc4c3=O)c21` (atropisomer, axis not shown; (P)) [Example 80, N—((S)-1-((3P)-3-(4-chloro-1-methyl-3-(methylsulfonamido)-1H-indazol-7-yl)-4-oxo-7-(4-(trifluoromethyl)pyridin-2-yl)-3,4-dihydroquinazolin-2-yl)-2-(3,5-difluorophenyl)ethyl)-2-((3bS,4aR)-3-(difluoromethyl)-5,5-difluoro-3b,4,4a,5-tetrahydro-1H-cyclopropa[3,4]cyclopenta[1,2-c]pyrazol-1-yl)acetamide] as the compound, how does the CC50 at 4 days [1] read?
Answer: > 100 nM

Question: And the EC50 [2]?
Answer: 0.2 nM

Question: With `Cc1cc(-c2ccc3c(=O)n(-c4ccc(Cl)c5c(NS(C)(=O)=O)nn(C)c45)c([C@H](Cc4cc(F)cc(F)c4)NC(=O)Cn4nc(C(F)F)c5c4C(F)(F)[C@@H]4C[C@H]54)nc3c2)nc(C)n1` (atropisomer, axis not shown; (P)) [Example 44, N—((S)-1-((3P)-3-(4-chloro-1-methyl-3-(methylsulfonamido)-1H-indazol-7-yl)-7-(2,6-dimethylpyrimidin-4-yl)-4-oxo-3,4-dihydroquinazolin-2-yl)-2-(3,5-difluorophenyl)ethyl)-2-((3bS,4aR)-3-(difluoromethyl)-5,5-difluoro-3b,4,4a,5-tetrahydro-1H-cyclopropa[3,4]cyclopenta[1,2-c]pyrazol-1-yl)acetamide] as the compound, how does the CC50 at 4 days [1] read?
Answer: > 500 nM

Question: And the EC50 [2]?
Answer: 0.04 nM

— patent US11541055B2, “Inhibitors of human immunodeficiency virus replication” (ViiV Healthcare UK (No. 5) LIMITED, priority 2018, dated 2023)
